These results are taken from ChEMBL document CHEMBL3112578, “Synthesis and haemolytic activity of novel salts made of nicotine alkaloids and bile acids” (Bioorg Med Chem Lett, 2014).

Values after ≈ are worked out from the molar mass of the structure shown.

Series [1] in a line: Hemolytic activity in human erythrocytes assessed as induction of echinocytic shape alteration at hemolysis start concentration after 60 mins by SEM analysis. The series is classed as cell-based. To be noted: erythrocyte, 1 h.
Series [2] can be described thus: Hemolytic activity in human erythrocytes assessed as induction of spheroechinocytic shape alteration at hemolysis start concentration after 60 mins by SEM analysis. The series is classed as cell-based. To be noted: erythrocyte, 1 h.
A short description of series [3]: Hemolytic activity in human erythrocytes assessed as release of hemoglobin after 60 mins. The class given is ADME, cell-based, Erythrocyte. To be noted: 1 h; for IC50: Homo sapiens, Erythrocyte; for Activity: human, erythrocyte.
Series [4] in a line: Hemolytic activity in human erythrocytes assessed as release of hemoglobin at 0.00001 mg/mL after 60 mins relative to control. To be noted: read-out: Activity. The series is classed as ADME, cell-based, Erythrocyte.
The nature of series [5]: Hemolytic activity in human erythrocytes assessed as release of hemoglobin at 0.19 mg/mL after 60 mins relative to control. To be noted: read-out: Activity. The series is classed as ADME, cell-based, Erythrocyte.
Series [6] is described as follows: Hemolytic activity in human erythrocytes assessed as release of hemoglobin at 0.006 mg/mL after 60 mins relative to control. The class given is ADME, cell-based, Erythrocyte. To be noted: read-out: Activity.
A short description of series [7]: Hemolytic activity in human erythrocytes assessed as increase in cell permeability up to 1 mg/mL after 60 mins. The series is classed as ADME, cell-based. To be noted: erythrocyte, 1 h.
Series [8] is described as follows: Hemolytic activity in human erythrocytes assessed as discocytic shape up to 1 mg/mL after 60 mins by SEM analysis. The series is classed as ADME, cell-based. To be noted: erythrocyte, 1 h.
Series [9] is described as follows: Hemolytic activity in human erythrocytes assessed as induction of stomatocytic shape alteration at hemolysis start concentration after 60 mins by SEM analysis. The class given is cell-based. To be noted: erythrocyte, 1 h.
A short description of series [10]: Hemolytic activity in human erythrocytes assessed as release of hemoglobin at 0.17 mg/mL after 60 mins relative to control. To be noted: read-out: Activity. The series is classed as ADME, cell-based, Erythrocyte.
Series [11] can be described thus: Hemolytic activity in human erythrocytes assessed as release of hemoglobin at 0.63 mg/mL after 60 mins relative to control. The series is classed as ADME, cell-based, Erythrocyte. To be noted: read-out: Activity.
Series [12] in a line: Hemolytic activity in human erythrocytes assessed as release of hemoglobin at 0.0001 mg/mL after 60 mins relative to control. The series is classed as ADME, cell-based, Erythrocyte. To be noted: read-out: Activity.
Series [13] is described as follows: Hemolytic activity in human erythrocytes assessed as release of hemoglobin at 0.67 mg/mL after 60 mins relative to control. The series is classed as ADME, cell-based, Erythrocyte. To be noted: read-out: Activity.
Series [14] is described as follows: Hemolytic activity in human erythrocytes assessed as release of hemoglobin at 0.75 mg/mL after 60 mins relative to control. The class given is ADME, cell-based, Erythrocyte. To be noted: read-out: Activity.
Series [15] in a line: Hemolytic activity in human erythrocytes assessed as release of hemoglobin at 0.007 mg/mL after 60 mins relative to control.

Take `CN1C(=S)CC[C@H]1c1cccnc1.C[C@H](CCC(=O)O)[C@H]1CC[C@H]2[C@@H]3CC[C@@H]4C[C@H](O)CC[C@]4(C)[C@H]3CC[C@]12C`: the Activity entry in series [1] was “Toxic”; in series [2] it was “Toxic”; in series [3] it was “Dose-dependent effect”. Also, the IC50 (commonly the concentration at which inhibition is half-maximal) in series [3] is 40 µg/mL. In addition, the hemolysis at 1 h, 1e-05 mg/mL in series [4] is 5%.

On to `CN1C(=[Se])CC[C@H]1c1cccnc1.C[C@H](CCC(=O)O)[C@H]1CC[C@H]2[C@@H]3CC[C@@H]4C[C@H](O)CC[C@]4(C)[C@H]3C[C@H](O)[C@]12C`, for which, in series [5], the hemolysis at 1 h, 0.19 mg/mL is 5%. In series [3], the concentration for half-maximal inhibition (IC50) stood at 610 µg/mL and the Activity result is given as “Dose-dependent effect”.

As for `CN1C(=[Se])CC[C@H]1c1cccnc1.C[C@H](CCC(=O)O)[C@H]1CC[C@H]2[C@@H]3CC[C@@H]4C[C@H](O)CC[C@]4(C)[C@H]3CC[C@]12C`, the Activity result in [1] is listed as “Toxic”. Further, in [3], the half-inhibitory concentration (IC50) was 180 µg/mL and the Activity entry is on record as “Dose-dependent effect”. The hemolysis at 1 h, 0.006 mg/mL in [6] came out at 5%.

For `CN1CCC[C@H]1c1cccnc1.C[C@H](CCC(=O)O)[C@H]1CC[C@H]2[C@@H]3[C@H](O)C[C@@H]4C[C@H](O)CC[C@]4(C)[C@H]3C[C@H](O)[C@]12C`, the Activity entry in series [7] was “Non-toxic”.

For the compound `CN1C(=[Se])CC[C@H]1c1cccnc1`, the Activity result in series [7] and in [8] was “Non-toxic” in each case.

As for `C[C@H](CCC(=O)O)[C@H]1CC[C@H]2[C@@H]3CC[C@@H]4C[C@H](O)CC[C@]4(C)[C@H]3C[C@H](O)[C@]12C` [SODIUM DEOXYCHOLATE], the Activity result in series [9] is given as “Toxic”. The hemolysis at 1 h, 0.17 mg/mL in series [10] worked out at 5%.

`CN1CCC[C@H]1c1cccnc1.C[C@H](CCC(=O)O)[C@H]1CC[C@H]2[C@@H]3CC[C@@H]4C[C@H](O)CC[C@]4(C)[C@H]3C[C@H](O)[C@]12C`: the hemolysis at 1 h, 0.63 mg/mL in series [11] came to 5%. For the same compound, the Activity result in series [9] is given as “Toxic”; in [7] it was “Non-toxic”; in series [3], “Dose-dependent effect”. In addition, the hemolysis at 1 h, 1e-05 mg/mL in series [4] was determined as 12.4%.

As for `CN1C(=S)CC[C@H]1c1cccnc1`, the Activity result in series [7] and in series [8] was “Non-toxic” each time.

Take `CN1CCC[C@H]1c1cccnc1` [NICOTINE]: the Activity entry in series [7] and in series [8] was “Non-toxic” each time.

As for `C[C@H](CCC(=O)O)[C@H]1CC[C@H]2[C@@H]3CC[C@@H]4C[C@H](O)CC[C@]4(C)[C@H]3CC[C@]12C` [LITHOCHOLIC ACID], the Activity entry in series [9] was “Toxic”. Also, the hemolysis at 1 h, 0.0001 mg/mL in series [12] is 5%. For the same compound, the IC50 in series [3] turned out to be 9 µg/mL (≈ 23.9 µM).

As to `CN1C(=S)CC[C@H]1c1cccnc1.C[C@H](CCC(=O)O)[C@H]1CC[C@H]2[C@@H]3CC[C@@H]4C[C@H](O)CC[C@]4(C)[C@H]3C[C@H](O)[C@]12C`, the Activity entry in [7] is “Non-toxic”; in series [3] it was “Dose-dependent effect”. Moreover, the hemolysis at 1 h, 0.67 mg/mL in [13] is 5%.

As to `C[C@H](CCC(=O)O)[C@H]1CC[C@H]2[C@@H]3[C@H](O)C[C@@H]4C[C@H](O)CC[C@]4(C)[C@H]3C[C@H](O)[C@]12C` [CHOLIC ACID], in series [14], the hemolysis at 1 h, 0.75 mg/mL stood at 5%. In addition, the Activity entry in [7] is “Non-toxic”.

For the compound `CN1CCC[C@H]1c1cccnc1.C[C@H](CCC(=O)O)[C@H]1CC[C@H]2[C@@H]3CC[C@@H]4C[C@H](O)CC[C@]4(C)[C@H]3CC[C@]12C`, in [9], the Activity result is reported as “Toxic”. Moreover, in series [3], the IC50 came to 200 µg/mL and the Activity entry is “Dose-dependent effect”. In addition, in series [4], the hemolysis at 1 h, 1e-05 mg/mL is 16.7%. The hemolysis at 1 h, 0.007 mg/mL in series [15] was found to be 5%.
